# From US8003649B2 (AstraZeneca AB, priority 2007, dated 2011)
# Biological target: T1, Androgen Receptor (AR) (Homo sapiens, UniProt P10275, T878A)
# T1 construct: cell based immuno-fluorescence assay using the LNCaP prostate epithelial cell line; endogenous in cells; host or cells: LNCaP clone FGC (ATCC CRL-1740)
# T1 sequence (P10275 1-920 T878A): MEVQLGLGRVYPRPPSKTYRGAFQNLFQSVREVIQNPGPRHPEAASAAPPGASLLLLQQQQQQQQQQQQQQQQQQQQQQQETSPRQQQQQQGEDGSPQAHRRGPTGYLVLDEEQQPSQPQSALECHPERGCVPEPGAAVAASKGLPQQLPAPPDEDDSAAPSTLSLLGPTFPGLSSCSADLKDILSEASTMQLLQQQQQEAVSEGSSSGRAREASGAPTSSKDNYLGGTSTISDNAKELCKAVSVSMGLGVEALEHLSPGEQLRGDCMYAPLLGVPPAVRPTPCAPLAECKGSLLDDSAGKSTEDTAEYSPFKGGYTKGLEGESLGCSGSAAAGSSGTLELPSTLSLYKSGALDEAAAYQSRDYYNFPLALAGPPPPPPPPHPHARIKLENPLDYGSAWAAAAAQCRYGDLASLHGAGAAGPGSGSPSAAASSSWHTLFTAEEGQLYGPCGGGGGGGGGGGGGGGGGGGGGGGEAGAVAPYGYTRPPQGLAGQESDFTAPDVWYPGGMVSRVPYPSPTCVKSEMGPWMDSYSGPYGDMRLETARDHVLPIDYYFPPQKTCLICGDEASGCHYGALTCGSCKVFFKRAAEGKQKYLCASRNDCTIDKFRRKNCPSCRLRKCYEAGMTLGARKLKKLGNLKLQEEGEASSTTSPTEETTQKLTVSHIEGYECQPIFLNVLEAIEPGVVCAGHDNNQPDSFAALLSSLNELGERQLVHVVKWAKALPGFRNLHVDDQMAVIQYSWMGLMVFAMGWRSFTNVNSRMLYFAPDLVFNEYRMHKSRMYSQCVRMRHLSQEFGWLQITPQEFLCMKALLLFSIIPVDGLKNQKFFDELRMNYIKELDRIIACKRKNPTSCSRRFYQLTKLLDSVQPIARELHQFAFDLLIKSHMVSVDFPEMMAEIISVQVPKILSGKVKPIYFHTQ
# Assay: LNCaP Androgen Receptor Down-regulation Cell Assay (immunofluorescence end point)
# Format: cell-based
# Conditions: LNCaP prostate carcinoma cells, compound incubation 20-22 hours, 50% reduction of the AR signal; read-out: Androgen Receptor Down-regulation Assay (a) IC50/μM
# Experimental: The ability of compounds to reduce Androgen Receptor (AR) numbers was assessed in a cell based immuno-fluorescence assay using the LNCaP prostate epithelial cell line.
# a) LNCaP Androgen Receptor Down-regulation Cell Assay
# A 5 ml volume of Growth Medium was added to each flask (as above except that 5% (v/v) charcoal stripped FBS (HyClone Code no. SH30068.03) was included instead of 10% (v/v) FBS). Cells were syringed at least twice using a sterile 18G×1.5″ (1.2×40 mm) broad gauge needle and cell density was measured using a haemocytometer.
# Test data reported herein was generated using two different compounds preparation and dosing methods. In method (1) a 10 mM compound stock solution in 100% (v/v) DMSO was serially diluted in 4-fold steps in 100% (v/v) DMSO using a Thermo Scientific Matrix SerialMate. The diluted compounds were then further diluted 1 in 30 in assay media using a Thermo Scientific Matrix PlateMate and a 10 μl aliquot of this dilution was dosed to cells manually using a multi-channel pipette. In method (2) starting with a 10 mM compound stock solution, the Labcyte Echo 550 was used to generate a compound concentration response set diluted in 30 μl of assay media. The Echo 550 is a liquid handler that uses acoustic technology to perform direct microplate-to-microplate transfers of DMSO compound solutions. The system can be programmed to transfer volumes as low as […] in multiple increments between microplates and in so doing generates a serial dilution of compound which is then back-filled to normalise the DMSO concentration across the dilution range. A 10 μl volume of diluted compound is then dosed to cells using a Thermo Scientific Matrix PlateMate.
# Plates were incubated overnight at 37° C., 5% CO2. Wells were then dosed with compound prepared by one of the 2 methods above and further incubated for 20-22 hours at 37° C., 5% CO2. […] This fixative solution was removed and cells were washed with 250 μl of PBS/0.05% (v/v) Tween 20 (PBST) using an automated plate washer. This process was then repeated twice more.
# Immunostaining was performed at room temperature. Cells were permeabilised by the addition of 35 μl of PBS containing 0.5% Tween 20 and incubated for 1 hour at room temperature. Permeabilisation solution was removed and cells were washed with 250 μl of PBST using an automated plate washer. This process was then repeated twice more. 35 μl of Blocking Solution (PBST containing 3% (w/v) Marvel dried skimmed milk (Nestle)) was added to each well and plates were incubated at room temperature for a minimum of 1 hour. […] Then this primary antibody solution was removed from the wells followed by 3×100 μl PBST washes using a plate washer. […] Henceforth, wherever possible, plates were protected from light exposure. The plates were incubated for 1 hour and then the secondary antibody solution was removed from the wells followed by 3×100 ul PBST washes using a plate washer. Then 50 μl of PBST was added to each well and plates were covered with a black plate seal and stored at 4° C. before being read. Plates were read within six hours of completing the immunostaining.
# The Green Fluorescent AR-associated signal in each well was measured using an Acumen Explorer HTS Reader (TTP Labtech Ltd., Cambridge). […] The instrument is a laser-scanning fluorescence microplate cytometer which samples the well at regular intervals and uses threshold algorithms to identify all fluorescent intensities above the solution background without the need to generate and analyse an image. These fluorescent objects can be quantified and provide a measure of the AR levels in cells. Fluorescence dose response data obtained with each compound was exported into a suitable software package (such as Origin) to perform curve fitting analysis. Down-regulation of AR levels was expressed as an IC50 value.
row,SMILES,DC50
1,O=C(NCCn1cccn1)c1cccc(OC2CCN(c3ccc4nnc(C(F)(F)F)n4n3)CC2)c1 [Example 705],5.3 µM
2,FC(F)(F)c1nnc2ccc(N3CC4CN(Cc5cncc(Br)c5)CC4C3)nn12 (centres unmarked) [Example 794],1.1 µM
3,"FC(F)(F)c1nnc2ccc(N3CC4CN(Cc5cccnc5)CC4C3)nn12 (centres unmarked) [Example 206, 6-[2-(pyridin-3-ylmethyl)-1,3,3a,4,6,6a-hexahydropyrrolo[3,4-c]pyrrol-5-yl]-3-(trifluoromethyl)-[1,2,4]triazolo[4,3-b]pyridazine]",2 µM
4,"Cn1c(CN2CCN(c3ccc4nnc(C(F)(F)F)n4n3)CC2)cc2ccccc21 [Example 69, 6-[4-[(1-methylindol-2-yl)methyl]piperazin-1-yl]-3-(trifluoromethyl)-[1,2,4]triazolo[4,3-b]pyridazine]",1.4 µM
5,FC(F)c1nnc2ccc(N3CCN(Cc4c[nH]c5ccc(Br)cc45)CC3)nn12 [Example 288],3.3 µM
6,"FC(F)(F)c1ccc(C(c2ccccc2)N2CCN(c3ccc4nnc(C(F)(F)F)n4n3)CC2)cc1 (centres unmarked) [Example 26, 6-[4-[phenyl-[4-(trifluoromethyl)phenyl]methyl]piperazin-1-yl]-3-(trifluoromethyl)-[1,2,4]triazolo[4,3-b]pyridazine]",1 µM
7,COc1ccccc1OCC1CCN(c2ccc3nnc(C(F)(F)F)n3n2)CC1 [Example 462],7.7 µM
8,"FC(F)(F)c1nnc2ccc(N3CCN(Cc4cccc5ccccc45)CC3)nn12 [Example 66, 6-[4-(naphthalen-1-ylmethyl)piperazin-1-yl]-3-(trifluoromethyl)-[1,2,4]triazolo[4,3-b]pyridazine]",0.33 µM
9,O=C(c1ccc2[nH]cc(C3CCN(c4ccc5nnc(C(F)(F)F)n5n4)CC3)c2c1)N1CCOCC1 [Example 502],2.2 µM
10,Fc1ccc(CN2CCN(c3ccc4nnc(C(F)F)n4n3)CC2)cc1F [Example 250],4.9 µM
11,"FC(F)c1nnc2ccc(N3CCN(C(c4ccccc4)c4ccccc4)CC3)nn12 [Example 5, 6-(4-benzhydrylpiperazin-1-yl)-3-(difluoromethyl)-[1,2,4]triazolo[4,3-b]pyridazine]",1.6 µM
12,"CS(=O)(=O)c1cccc(CN2CCN(c3ccc4nnc(C(F)(F)F)n4n3)CC2)c1 [Example 74, 6-[4-[(3-methylsulfonylphenyl)methyl]piperazin-1-yl]-3-(trifluoromethyl)-[1,2,4]triazolo[4,3-b]pyridazine]",5.6 µM
13,"FC(F)(Cl)c1nnc2ccc(N3CCCC(c4ccccc4)CC3)nn12 (centres unmarked) [Example 355, 3-[chloro(difluoro)methyl]-6-(4-phenylazepan-1-yl)[1,2,4]triazolo[4,3-b]pyridazine]",0.72 µM
14,"OC1(c2ccccc2Cl)CCN(c2ccc3nnc(C(F)(F)F)n3n2)CC1 [Example 315, 4-(2-chlorophenyl)-1-[3-(trifluoromethyl)[1,2,4]triazolo[4,3-b]pyridazin-6-yl]piperidin-4-ol]",2 µM
15,"Cn1nccc1CCOc1ccc(N2CCN(c3ccc4nnc(C(F)F)n4n3)CC2)cc1 [Example 856, 3-(difluoromethyl)-6-[4-[4-[2-(1-methyl-1H-pyrazol-5-yl]ethoxy]phenyl]piperazin-1-yl)[1,2,4]triazolo[4,3-b]pyridazine]",2.2 µM
16,Fc1cccc(-c2nc(C3CCN(c4ccc5nnc(C(F)(F)F)n5n4)CC3)no2)c1 [Example 302],1.1 µM
17,"N#Cc1cc(OC2CCN(c3ccc4nnc(C(F)(F)F)n4n3)CC2)ccn1 [Example 449, 4-[[1-[3-(trifluoromethyl)[1,2,4]triazolo[4,3-b]pyridazin-6-yl]piperidin-4-yl]oxy]pyridine-2-carbonitrile]",4.8 µM
18,C[C@H]1CN(Cc2ccc(F)cc2)CCN1c1ccc2nnc(C(F)(F)F)n2n1 [Example 597],2.9 µM

row,SMILES,DC50
1,CN(Cc1cc(F)cc(F)c1)C1CCN(c2ccc3nnc(C(F)(F)F)n3n2)CC1 [Example 410],2.1 µM
2,FC(F)(F)c1nnc2ccc(N3CCC(COc4ncccn4)CC3)nn12 [Example 558],2.6 µM
3,C[C@@H]1CN(c2ccc3nnc(C(F)(F)F)n3n2)CCN1Cc1ccc(Cl)nc1 [Example 833],> 12 µM
4,"Fc1cccc(CN2CCN(c3ccc4nnc(C(F)(F)F)n4n3)CC2)c1C(F)F [Example 781, 6-[4-[2-(difluoromethyl)-3-fluorobenzyl]piperazin-1-yl]-3-(trifluoromethyl)[1,2,4]triazolo[4,3-b]pyridazine]",0.82 µM
5,N#Cc1ccc(OC2CCN(c3ccc4nnc(C(F)(F)F)n4n3)CC2)cc1 [Example 627],1.7 µM
6,COCC(=O)Nc1ccc(C2CCN(c3ccc4nnc(C(F)(F)F)n4n3)CC2)cc1 [Example 664],3.6 µM
7,"FC(F)(F)c1nnc2ccc(N3CCN(Cc4csnn4)CC3)nn12 [Example 53, 6-[4-(thiadiazol-4-ylmethyl)piperazin-1-yl]-3-(trifluoromethyl)-[1,2,4]triazolo[4,3-b]pyridazine]",7.9 µM
8,FC(F)(F)c1nnc2ccc(N3CC4CN(Cc5ccc(Br)nc5)CC4C3)nn12 (centres unmarked) [Example 798],1 µM
9,CN1CCN(C(=O)c2ccc(N3CCN(c4ccc5nnc(C(F)(F)F)n5n4)CC3)cc2)CC1 [Example 744],9.6 µM
10,FC(F)c1nnc2ccc(N3CCN(Cc4c[nH]c5ccc(Cl)cc45)CC3)nn12 [Example 287],2 µM
11,"FC(F)(F)c1nnc2ccc(N3CCC(c4c[nH]c5ccccc45)CC3)nn12 [Example 507, 6-[4-(1H-indol-3-yl)piperidin-1-yl]-3-(trifluoromethyl)[1,2,4]triazolo[4,3-b]pyridazine]",0.53 µM
12,COCCNC(=O)c1cccc(OC2CCN(c3ccc4nnc(C(F)(F)F)n4n3)CC2)c1 [Example 689],4.1 µM
13,FC(F)(F)c1ccc(OCC2CCN(c3ccc4nnc(C(F)(F)F)n4n3)CC2)cc1 [Example 468],> 11 µM
14,C[C@@H]1CN(Cc2ccc(F)c(C#N)c2)CCN1c1ccc2nnc(C(F)(F)F)n2n1 [Example 604],1.7 µM
15,FC(F)(F)c1nnc2ccc(N3CCC(Oc4ccc(OCc5cnco5)cc4)CC3)nn12 [Example 439],0.48 µM
16,CN1CCC(NC(=O)c2cccc(C3CCN(c4ccc5nnc(C(F)(F)F)n5n4)CC3)c2)CC1 [Example 651],1.9 µM
17,Fc1ccc(-c2nc(N3CCN(c4ccc5nnc(C(F)(F)F)n5n4)CC3)no2)cc1 [Example 274],6.1 µM
